Source: article PMC12867150, “A fungi-derived cyclic peptide enhances Th9-mediated antitumor immunity by targeting ZAP70 and SREBP1” (The Journal of Clinical Investigation, 2025)
Several values for one entry are separate records, joined by “and”; a condition that tells them apart may be missing. Equal values may be shown once.

Tests used:
[1] = Body weight after ACT (S1A); format: in vivo, mouse; settings: EpA-Th9 therapy vs control; result in words
Experimental: C57BL/6 mice were subcutaneously injected with 5 × 10^5 B16-OVA melanoma cells. Five days after tumor implantation, mice received an intravenous infusion of 2 × 10^6 in vitro–differentiated Th9 cells (cultured for 5 days), which were derived from OT-II CD45.1 donor mice, accompanied by 4 × 10^5 OVA peptide–pulsed DCs via the tail vein. To enhance T cell engraftment and facilitate lymphodepletion, a single intraperitoneal injection of cyclophosphamide (200 mg/kg, Sigma, catalog C0768) was administered 1 day prior to T cell transfer. Mice were euthanized at designated time points for the collection and analysis of spleens, tumor-draining lymph nodes, and tumor tissues.
Days after ACT Days after ACT
Figure S1. EpA enhances immune responses.
(A) Body weight of mice after ACT in PBS, control, and EpA-treated groups. (B) Serum IL-6 levels after ACT, measured by ELISA on days 5, 10, 15, and 20. (C–E) Representative flow-cytometric plots showing transferred CD45.1⁺ OT-II Th9 cells in spleens (C), tumor-draining lymph nodes (LNs) (D), and tumors (E); frequencies Figure S1 and absolute numbers of CD45.1⁺ OT-II Th9 cells in LNs are quantified in (D). (F–
I) Representative flow-cytometric plots of endogenous CD4⁺ and CD8⁺ T cells in spleens (F), LNs (G), and tumors (H); frequencies and absolute numbers of endogenous CD4⁺ (G) and CD8⁺ (I) T cells in LNs are quantified. […]

[2] = tested on: Th9 signature genes (Irf4, Batf3, Batf, and Il9); assay: Quantitative RT-PCR of Th9 signature genes (Figure 1J); format: cell-based, mouse
Experimental: (§1) Total RNA was extracted from T cells using RNAex Pro Reagent (AG, catalog AG21102) following the manufacturer’s instructions. First-strand complementary DNA (cDNA) was synthesized using the Hifair III 1st Strand cDNA Synthesis SuperMix (YEASEN, catalog 11137ES10). Quantitative real-time PCR (qRT-PCR) was conducted on a QuantStudio 3 Real-Time PCR System (Thermo Fisher Scientific) using ChamQ Universal SYBR qPCR Master Mix (Vazyme, catalog Q711-02) and gene-specific primers (Tsingke Biotech).
(§2) For normalization, mouse samples were referenced to Gapdh or Actb, and human samples were normalized to GAPDH. Relative gene expression was calculated using the ΔΔCt method. Primer sequences are listed in Supplemental Table 5.

ZAP70 = assay: CETSA of ZAP70 in Jurkat cell lysates (Figure 5C-D); format: binding, Jurkat cells; settings: result in words
Experimental: (§3) Jurkat or 293T cells were washed twice with PBS and resuspended in PBS containing protease and phosphatase inhibitors. Cells were lysed by 3 cycles of liquid nitrogen snap-freezing and thawing at room temperature. […] One aliquot from each group was maintained at room temperature, and the others were heated for 3 minutes at 3 °C increments from 43°C to 64°C. Samples were then analyzed by SDS-PAGE and immunoblotting to assess protein thermal stability and compound binding.

Th9 cells = assay: IL-9+ Th9 cells with oleic acid (S8I-J); format: cell-based, mouse; settings: representative flow plot, Figure S8I; EpA 10 μM, OA 50 μM
Description: LXR-α binding site ChREBP binding site USF1 binding site […] 2.1 1.8 2.1 […] 1.9 […] 20 20 0 […] + OA ✱✱✱✱ MIGR1 M Ctrl + OAEpA […] SREBP1 Ctrl SREBP1EpA ✱✱✱✱ ✱✱✱ 3 2 1 0 TNF-α MIGR1 SREBP1 […] SREBP1EpA Figure S8. EpA-associated modulation of lipid metabolism and its impact on Figure S8 Th9 cell function. (A-C) GSEA of RNA-seq data showing intracellular sterol transport (A), sterol transfer activity (B), and long-chain fatty acid transport (C) pathways in control and EpA-treated Th9 cells. […] (K and L) Flow-cytometric analysis of IL-9 expression in Th9 cells transduced with either control (MIGR1) or SREBP1- […]

[3] = tested on: Il9 and Tnf mRNA in Th9 cells; assay: Quantitative PCR of Il9 and Tnf mRNA with fatostatin or SREBP1 overexpression (Figure 7B, 7H, 7I); format: cell-based, mouse
Experimental: For murine T cell transduction, MIGR1-based retroviral vector encoding Srebf1 was used. HEK293T cells were transfected with these constructs using Lipofectamine 3000 (Thermo Fisher Scientific) to produce viral particles. Supernatants were collected between 48 and 72 hours after transfection, filtered through a 0.45 μm membrane, and stored at –80°C. Naive murine CD4^+ T cells were activated with plate-bound anti-CD3 (2 μg/mL, clone 17A2, BioXCell) and soluble anti-CD28 (1 μg/mL, clone 37.51, BioXCell) stimulation in the presence of subset-specific polarizing cytokines and then transduced with viral supernatant supplemented with polybrene (10 μg/mL).
as §1, §2

SREBP1 = assay: CETSA of SREBP1 (Figure 6D-E); format: binding; settings: result in words
Experimental: as §3

[4] = EpA-treated Th9, ΔΔCt, individual replicates, n = 3

With anteiso-C15 Leu7 surfactin [EpA] as the substance, how does the body weight [1] read?
The body weight was “No significant differences”.

And the “Batf3 relative mRNA expression” value [2, 4]?
The value was 1.532 and 2.109 and 2.3014.

And the “Batf relative mRNA expression” value [2, 4]?
The value was 1.713 and 1.736 and 1.548.

What about the “Il9 relative mRNA expression” value [2, 4] of the same substance?
Its value is 23.4757 and 53.1262 and 48.3738.

And the “Irf4 relative mRNA expression” value [2, 4]?
Its value is 1.345 and 1.289 and 1.126.

What about the “Th9-associated transcription factors and effector cytokines” value ([2]; result in words) of the same substance?
The value was “significantly upregulated”.

And the “thermal stability of ZAP70” value (ZAP70)?
Its value is “increased thermal stability of ZAP70”.

And the IL-9 gate number (Th9 cells)?
Its IL-9 gate number is 77.2.

And the “Il9 mRNA expression (quantitative PCR)” value ([3]; Figure 7B, EpA (10 µM) + Fatostatin (10 µM), individual replicates, (n = 3))?
Its value is 42.4796 and 40.5146 and 54.9024.

What about the “Il9 mRNA expression in Th9 cells” value ([3]; Figure 7H, MigR1 vector, individual replicates, (n = 3)) of the same substance?
The value was 17.2536 and 18.9128 and 17.6178.

What about the “Il9 mRNA expression in Th9 cells” value ([3]; Figure 7H, overexpressing SREBP1, individual replicates, (n = 3)) of the same substance?
Its value is 6.0458 and 5.242 and 5.497.

And the “Il9 mRNA expression in Th9 cells” value ([3]; Figure 7I, MigR1 vector, individual replicates, (n = 3))?
The value was 2.765 and 2.875 and 2.532.

What about the “Il9 mRNA expression in Th9 cells” value ([3]; Figure 7I, overexpressing SREBP1, individual replicates, (n = 3)) of the same substance?
Its value is 1.999 and 1.591 and 1.423.

What about the “EpA-induced Il9 and Tnf mRNA increase upon SREBP1 overexpression” value ([3]; result in words) of the same substance?
The value was “markedly suppressed”.

And the “thermal stability of SREBP1” value (SREBP1)?
The value was “enhanced thermal stability of SREBP1”.
